Like-named read-outs stand apart in the source and are kept apart here.
Target: SOS1 (Homo sapiens (Human), UniProt Q07889)
Experiment: Ras-SOS interaction assay (HTRF)
Assay type: biochemical
From the text: The ability of any compound of the present disclosure to reduce a Ras protein signaling output by, e.g., interfering or disrupting interaction (or binding) between SOS1 and a Ras protein can be assessed in vitro. For example, the equilibrium interaction of human SOS1 (hSOS1) with human wildtype Kras or K-Ras mutant (e.g., hK-Ras G12C mutant, or hK-RasG12C) can be assessed as a proxy or an indication for a subject compound's ability to inhibit SOS. Detection of such interaction is achieved by measuring homogenous time-resolved fluorescence resonance energy transfer (HTRF) from (i) a fluorescence resonance energy transfer (FRET) donor (e.g., antiGST-Europium) that is bound to GST-tagged K-RasG12C to (ii) a FRET acceptor (e.g., anti-6His-XL665) bound to a His-tagged hSOS1.
The assay buffer can contain 5 mM HEPES pH 7.4, 150 mM NaCl, 10 mM EDTA, 1 mM DTT, 0.05% BSA, 0.0025% (v/v) Igepal and 100 mM KF. A Ras working solution is prepared in assay buffer containing typically 10 nM of the protein construct (e.g., GST-tagged hK-RasG12C) and 2 nM of the FRET donor (e.g., antiGST-Eu(K) from Cisbio, France). A SOS1 working solution is prepared in assay buffer containing typically 10 nM of the protein construct (e.g., His-hSOS1) and 10 nM of the FRET acceptor (e.g., anti-6His-XL665 from Cisbio, France). An inhibitor control solution is prepared in assay buffer containing 10 nM of the FRET acceptor without the SOS1 protein.
A fixed reaction mixture with or without test compound is transferred into a 384-well plate. Ras working solution is added to all wells of the test plate. SOS1 working solution is added to all wells except for those that are subsequently filled the inhibitor control solution. After approximately 60 min incubation, the fluorescence is measured with a M1000Pro plate reader (Tecan) using HTRF detection (excitation 337 nm, emission 1: 620 nm, emission 2: 665 nm). Compounds are tested in duplicates at different concentrations (for example, 10 μM, 2.5 μM, 0.63 μM, 0.16 μM, 0.04 μM, 0.01 μM test compound). The ratiometric data (i.e., emission 2 divided by emission 1) is used to calculate IC50 values against SOS1 using GraphPad Prism (GraphPad software).

[1] = K-RasG13D utilized, read-out: IC50 inhibition of SOS
[2] = K-RasG13D, read-out: IC50 value against SOS1

Sequence of SOS1 (Q07889 564-1049): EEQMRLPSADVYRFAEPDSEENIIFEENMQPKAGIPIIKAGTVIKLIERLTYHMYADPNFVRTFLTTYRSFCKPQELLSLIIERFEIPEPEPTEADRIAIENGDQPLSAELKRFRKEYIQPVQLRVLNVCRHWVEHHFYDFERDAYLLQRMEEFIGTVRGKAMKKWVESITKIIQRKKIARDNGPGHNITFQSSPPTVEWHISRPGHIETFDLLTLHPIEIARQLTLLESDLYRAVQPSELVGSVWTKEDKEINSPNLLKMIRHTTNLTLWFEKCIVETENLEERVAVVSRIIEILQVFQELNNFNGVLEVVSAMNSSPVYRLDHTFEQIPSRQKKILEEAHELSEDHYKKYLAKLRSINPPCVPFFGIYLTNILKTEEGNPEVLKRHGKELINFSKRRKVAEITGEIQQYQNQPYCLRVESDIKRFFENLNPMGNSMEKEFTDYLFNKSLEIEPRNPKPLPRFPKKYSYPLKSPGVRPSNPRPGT

SMILES	IC50 [1] [nM]	IC50 [2] [nM]
COc1nc2nc(C)nc(N[C@H](C)c3cccc(C(F)(F)F)c3F)c2cc1N1CCN(C(=O)[C@H]2COCCO2)CC1 [Compound 310, ((R)-1,4-dioxan-2-yl)(4-(4-(((R)-1-(2-fluoro-3-(trifluoromethyl)phenyl)ethyl)amino)-7-methoxy-2-methylpyrido[2,3-d]pyrimidin-6-yl)piperazin-1-yl)methanone]	< 100	
Cc1nc(N[C@H](C)c2cccc(C(F)F)c2F)c2cc(C3(C(F)F)CC3)c(OC3COC3)nc2n1 [Compound 186, (R)—N-(1-(3-(difluoromethyl)-2-fluorophenyl)ethyl)-6-(1-(difluoromethyl)cyclopropyl)-2-methyl-7-(oxetan-3-yloxy)pyrido[2,3-d]pyrimidin-4-amine]	< 100	
Cc1nc(N[C@H](C)c2cccc(C(F)(F)F)c2C)c2cc(C3(C#N)CC3)c(Cl)nc2n1 [Compound 423, (R)-1-(7-chloro-2-methyl-4-((1-(2-methyl-3-(trifluoromethyl)phenyl)ethyl)amino)pyrido[2,3-d]pyrimidin-6-yl)cyclopropane-1-carbonitrile]	100 to 1000	
COc1nc2nc(CCN3CCC3)nc(N[C@H](C)c3cccc(C(F)(F)F)c3C)c2cc1C1(C#N)CC1 [Compound 427, (R)-1-(2-(2-(azetidin-1-yl)ethyl)-7-methoxy-4-((1-(2-methyl-3-(trifluoromethyl)phenyl)ethyl)amino)pyrido[2,3-d]pyrimidin-6-yl) cyclopropane-1-carbonitrile]	< 100	< 50
COc1nc2nc(N3CC(N(C)C)C3)nc(N[C@H](C)c3cccc(C(F)F)c3F)c2cc1C1(C#N)CC1 [Compound 237, (R)-1-(4-((1-(3-(difluoromethyl)-2-fluorophenyl)ethyl)amino)-2-(3-(dimethylamino)azetidin-1-yl)-7-methoxypyrido[2,3-d]pyrimidin-6-yl)cyclopropane-1-carbonitrile]	100 to 1000	
Cc1nc(N[C@H](C)c2cccc(C(F)F)c2F)c2cc(C3(C#N)CC3)c(NC3CCOCC3)nc2n1 [Compound 228, (R)-1-(4-((1-(3-(difluoromethyl)-2-fluorophenyl)ethyl)amino)-2-methyl-7-((tetrahydro-2H-pyran-4-yl)amino)pyrido[2,3-d]pyrimidin-6-yl)cyclopropane-1-carbonitrile]	100 to 1000	
Cc1nc(N[C@H](C)c2cccc(C(F)(F)F)c2C)c2cc(N3CCN(C(C)C)CC3)c(Cl)nc2n1 [Compound 201, (R)-7-chloro-6-(4-isopropylpiperazin-1-yl)-2-methyl-N-(1-(2-methyl-3-(trifluoromethyl)phenyl)ethyl)pyrido[2,3-d]pyrimidin-4-amine]	< 100	< 50
COc1nc2nc(C)nc(N[C@H](C)c3cccc(C(F)(F)F)c3F)c2cc1N1CCN(C2CCOCC2)CC1 [Compound 290, (R)-N-(1-(2-fluoro-3-(trifluoromethyl)phenyl)ethyl)-7-methoxy-2-methyl-6-(4-(tetrahydro-2H-pyran-4-yl)piperazin-1-yl)pyrido[2,3-d]pyrimidin-4-amine]	< 100	< 50
C[C@@H](Nc1ncnc2nc(OC3COC3)c(C3(C(F)F)CC3)cc12)c1cccc(C(F)F)c1F [Compound 408, (R)-N-(1-(3-(difluoromethyl)-2-fluorophenyl)ethyl)-6-(1-(difluoromethyl)cyclopropyl)-7-(oxetan-3-yloxy)pyrido[2,3-d]pyrimidin-4-amine]	100 to 1000	
COc1nc2nc(C)nc(N[C@H](C)c3cccc(C(F)(F)C4CCN(C(C)C)CC4)c3F)c2cc1C1CCN(C)CC1 [Compound 424, (R)-N-(1-(3-(difluoro(1-isopropylpiperidin-4-yl)methyl)-2-fluorophenyl)ethyl)-7-methoxy-2-methyl-6-(1-methylpiperidin-4-yl)pyrido[2,3-d]pyrimidin-4-amine]	< 100	< 50
COc1nc2nc(C)nc(N[C@H](C)c3cccc(C(F)F)c3F)c2cc1C1(C#N)CCN(Cc2ccccc2)CC1 [Compound 140, (R)-1-benzyl-4-(4-((1-(3-(difluoromethyl)-2-fluorophenyl)ethyl)amino)-7-methoxy-2-methylpyrido[2,3-d]pyrimidin-6-yl)piperidine-4-carbonitrile]	100 to 1000	
COc1nc2nc(C)nc(N[C@H](C)c3cccc(C(F)F)c3F)c2cc1C1CCNCC1 [Compound 121, (R)—N-(1-(3-(difluoromethyl)-2-fluorophenyl)ethyl)-7-methoxy-2-methyl-6-(piperidin-4-yl)pyrido[2,3-d]pyrimidin-4-amine]	< 100	< 50
COc1nc2nc(C)nc(N[C@H](C)c3cccc(C(F)(F)C(C)(C)OC4CN(C(=O)OC(C)(C)C)C4)c3F)c2cc1N1CCN(C(C)C)CC1 [Compound 241, tert-butyl (R)-3-((1,1-difluoro-1-(2-fluoro-3-(1-((6-(4-isopropylpiperazin-1-yl)-7-methoxy-2-methylpyrido[2,3-d]pyrimidin-4-yl)amino)ethyl)phenyl)-2-methylpropan-2-yl)oxy)azetidine-1-carboxylate]	< 100	
COc1nc2ncnc(N[C@H](C)c3cccc(C(F)(F)F)c3F)c2cc1C1CCN(C)CC1 [Compound 281, (R)-N-(1-(2-fluoro-3-(trifluoromethyl)phenyl)ethyl)-7-methoxy-6-(1-methylpiperidin-4-yl)pyrido[2,3-d] pyrimidin-4-amine]	100 to 1000	
COc1nc2nc(C)nc(N[C@H](C)c3cccc(C)c3F)c2cc1[C@H]1C[C@@H](N)C1 [Compound 111, 6-((1s,3S)-3-aminocyclobutyl)-N-((R)-1-(2-fluoro-3-methylphenyl)ethyl)-7-methoxy-2-methylpyrido[2,3-d]pyrimidin-4-amine]	100 to 1000	
COc1nc2nc(C)nc(N[C@H](C)c3cccc(C(F)(F)F)c3F)c2cc1N1CCN(C(=O)[C@@H]2COCCO2)CC1 [Compound 382, ((S)-1,4-dioxan-2-yl)(4-(4-(((R)-1-(2-fluoro-3-(trifluoromethyl)phenyl)ethyl)amino)-7-methoxy-2-methylpyrido[2,3-d]pyrimidin-6-yl)piperazin-1-yl)methanone]	< 100	< 50
COc1nc2ncnc(N[C@H](C)c3cccc(C(F)F)c3F)c2cc1C1CCN(C2CCOCC2)CC1 [Compound 416, (R)-N-(1-(3-(difluoromethyl)-2-fluorophenyl)ethyl)-7-methoxy-6-(1-(tetrahydro-2H-pyran-4-yl)piperidin-4-yl)pyrido[2,3-d]pyrimidin-4-amine]	< 100	< 50
Cc1nc(N[C@H](C)c2cccc(C(F)F)c2F)c2cc(C3(C#N)CC3)c(NCC3COC3)nc2n1 [Compound 398, (R)-1-(4-((1-(3-(difluoromethyl)-2-fluorophenyl)ethyl)amino)-2-methyl-7-((oxetan-3-ylmethyl)amino)pyrido[2,3-d]pyrimidin-6-yl)cyclopropane-1-carbonitrile]	100 to 1000	
COc1nc2nc(CCN3CCC3)nc(N[C@H](C)c3cccc(C(F)(F)F)c3F)c2cc1C1(C#N)CC1 [Compound 426, (R)-1-(2-(2-(azetidin-1-yl)ethyl)-4-((1-(2-fluoro-3-(trifluoromethyl)phenyl)ethyl)amino)-7-methoxypyrido[2,3-d]pyrimidin-6-yl)cyclopropane-1-carbonitrile]	< 100	
C[C@@H](Nc1ncnc2nc(O[C@H]3CCOC3)c(C3(C#N)CC3)cc12)c1cccc(C(F)F)c1F [Compound 230, 1-(4-(((R)-1-(3-(difluoromethyl)-2-fluorophenyl)ethyl)amino)-7-(((S)-tetrahydrofuran-3-yl)oxy)pyrido[2,3-d]pyrimidin-6-yl)cyclopropane-1-carbonitrile]	100 to 1000	
Cc1nc(N[C@H](C)c2cccc(C(F)F)c2F)c2cc(N3CCN(C(C)C)CC3)c(NC3CNC3)nc2n1 [Compound 357, (R)-N7-(azetidin-3-yl)-N4-(1-(3-(difluoromethyl)-2-fluorophenyl)ethyl)-6-(4-isopropylpiperazin-1-yl)-2-methylpyrido[2,3-d]pyrimidine-4,7-diamine]	< 100	< 50
COc1nc2nc(C)nc(N[C@H](C)c3cccc(C(F)(F)C4CN(C(C)C)C4)c3F)c2cc1C1(C#N)CC1 [Compound 284, (R)-1-(4-((1-(3-(difluoro(1-isopropylazetidin-3-yl)methyl)-2-fluorophenyl)ethyl)amino)-7-methoxy-2-methylpyrido[2,3-d]pyrimidin-6-yl)cyclopropane-1-carbonitrile]	< 100	
